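Where inhibition never reached the appropriate level, the endpoint shown equals the highest concentration tested. Otherwise, values were interpolated linearly from a five-concentration, 48-hour dose response in 96-well plates. At the TGI there is no net growth.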

Some test systems named below: MDA-N; NCI-H226 lung; HCC-2998 colon; MCF7 breast; IGROV1 ovarian; K-562 leukemia; HCT-116 colon; MDA-MB-231 breast; OVCAR-8 ovarian; RXF 393 renal; HOP-62 NSCLC.
Common to all, as to assay: NCI tumour cell line growth inhibition, 48 h

With `Cc1sc2nc3n(sc4nc5sc(C)c(C)c5c(=O)n43)c(=O)c2c1C`, the TGI in the assay on MDA-N, with NCI-H226 lung, in the assay with HCC-2998 colon, in the assay on MCF7 breast, with IGROV1 ovarian and in the assay on K-562 leukemia was more than 100 µM in each case. Besides, the TGI with HCT-116 colon, with MDA-MB-231 breast and in the assay with OVCAR-8 ovarian was more than 100 µM throughout.

`Cc1cccc(=O)c([O-])c1.Cc1cccc(=O)c([O-])c1.Cc1cccc(=O)c([O-])c1.Cc1cccc(=O)c([O-])c1.[Th+4]`: the TGI with NCI-H226 lung was more than 100 µM; in the assay on HCC-2998 colon, more than 100 µM; in the assay on RXF 393 renal, more than 100 µM; with HOP-62 NSCLC it was more than 100 µM; in the assay with IGROV1 ovarian, more than 100 µM; in the assay on K-562 leukemia, more than 38.6 µM. The TGI with HCT-116 colon was 35 µM; in the assay on OVCAR-8 ovarian it was more than 100 µM.

Regarding `COC(C/C=C\C=C\CC/C=C/CC(C)/C=C/C(=C\C(=O)O)CC(=O)O)/C(C)=C\C=C(/C)C(=O)O` (centres undefined), the TGI in the assay on MDA-N, in the assay with HCC-2998 colon, in the assay on HOP-62 NSCLC, with IGROV1 ovarian, with HCT-116 colon and in the assay with MDA-MB-231 breast was more than 100 µM each time.

As for `COc1ccc(C2C3=CONC3CC3CCCCC32)cc1` (centres undefined), the TGI was more than 100 µM in the assay on NCI-H226 lung; 47.3 µM in the assay with HCC-2998 colon; more than 100 µM in the assay with HOP-62 NSCLC; more than 100 µM with MCF7 breast; more than 100 µM in the assay on IGROV1 ovarian; more than 100 µM in the assay with K-562 leukemia. Further, the TGI in the assay with HCT-116 colon and in the assay on OVCAR-8 ovarian was more than 100 µM in each case.

As for `COc1ccc(Nc2nc(NNC(=O)Cc3ccccc3)nc(NNC(=O)c3ccncc3)n2)cc1`, the TGI in the assay on MDA-N, with HCC-2998 colon, in the assay with HOP-62 NSCLC, in the assay with MCF7 breast, in the assay on IGROV1 ovarian and in the assay on K-562 leukemia was more than 10 µM each time. In addition, the TGI with HCT-116 colon, in the assay on MDA-MB-231 breast and with OVCAR-8 ovarian was more than 10 µM throughout.

Take `COCCN(C(=O)c1ccccc1)C1CCC(=O)c2[nH]c3ccccc3c21` (centres undefined): the TGI is 20.6 µM in the assay with NCI-H226 lung; 31.8 µM in the assay on HCC-2998 colon; 15.2 µM with RXF 393 renal; 11.5 µM in the assay on HOP-62 NSCLC; 19.2 µM in the assay on MCF7 breast; 13.6 µM with IGROV1 ovarian. Also, the TGI with K-562 leukemia came to 18.3 µM; in the assay on HCT-116 colon, 26.5 µM; with MDA-MB-231 breast it was 15.9 µM; in the assay with OVCAR-8 ovarian it was 21.3 µM.

`Cc1ccc(C(=O)NN=C(/N=N/c2cccc(C)c2)c2ccc(N(C)C)cc2)cc1`: the TGI with MDA-N, with NCI-H226 lung, with HCC-2998 colon, in the assay on MCF7 breast, in the assay with IGROV1 ovarian and in the assay with K-562 leukemia was more than 100 µM in each case. For the same molecule, the TGI with HCT-116 colon, in the assay with MDA-MB-231 breast and in the assay with OVCAR-8 ovarian was more than 100 µM throughout.

Consider `CCC(=O)Nc1ccc(N2C(=O)/C(=C/c3ccc(O)c(OC)c3)N=C2c2ccccc2)cc1`, for which the TGI in the assay on MDA-N was more than 100 µM; with NCI-H226 lung, 50.5 µM; in the assay with HCC-2998 colon it was more than 100 µM; in the assay with RXF 393 renal, 48.4 µM; in the assay on HOP-62 NSCLC, more than 100 µM; in the assay on MCF7 breast it was more than 100 µM. Besides, the TGI in the assay on IGROV1 ovarian, in the assay with K-562 leukemia, with HCT-116 colon and in the assay on OVCAR-8 ovarian was more than 100 µM throughout.

For `COc1ccc(C[C@H]2COC(=O)[C@@H]2Cc2ccccc2)cc1OC`, the TGI in the assay on MDA-N, in the assay with NCI-H226 lung, in the assay on HOP-62 NSCLC, in the assay with MCF7 breast, in the assay on IGROV1 ovarian and with K-562 leukemia was more than 100 µM throughout. Moreover, the TGI with HCT-116 colon, in the assay on MDA-MB-231 breast and in the assay with OVCAR-8 ovarian was more than 100 µM in each case.

With `COc1ccc2c3c([nH]c2c1)-c1nc2ccccc2c(=O)n1CC3`, the TGI in the assay on MDA-N, with HCC-2998 colon, in the assay with HOP-62 NSCLC, with MCF7 breast, in the assay on IGROV1 ovarian and in the assay with K-562 leukemia was more than 25 µM in each case. Also, the TGI in the assay on HCT-116 colon, with MDA-MB-231 breast and in the assay on OVCAR-8 ovarian was more than 25 µM each time.

On to `Cc1cc(=O)[nH]c(NN2C(Cl)C(=O)C2c2ccco2)n1` (centres undefined), for which the TGI in the assay with HCC-2998 colon, with RXF 393 renal, in the assay with HOP-62 NSCLC, with IGROV1 ovarian, with K-562 leukemia and in the assay with HCT-116 colon was more than 100 µM throughout. The molecule further had a TGI in the assay on OVCAR-8 ovarian of more than 100 µM.

As to `Cc1ccc(Cl)c2c(=O)cc(-c3ccccc3)[nH]c12`, the TGI in the assay with NCI-H226 lung, with RXF 393 renal, in the assay with HOP-62 NSCLC, in the assay with IGROV1 ovarian, in the assay on K-562 leukemia and in the assay with HCT-116 colon was more than 100 µM throughout. Further, the TGI in the assay on OVCAR-8 ovarian was more than 100 µM.

With `Cc1ccc(C2(N3CCOCC3)OC(C)(C)c3cccc4cccc2c34)cc1` (centres undefined), the TGI with MDA-N is 34.1 µM; in the assay with NCI-H226 lung it was 35.8 µM; with RXF 393 renal, 31.5 µM; in the assay with HOP-62 NSCLC it was 32.9 µM; with MCF7 breast it was 33.2 µM; in the assay with IGROV1 ovarian, 35.2 µM. Also, the TGI with K-562 leukemia was more than 100 µM; in the assay on HCT-116 colon, 36.9 µM; in the assay with OVCAR-8 ovarian it was 33.6 µM.

`Cn1c(O)c(/C=N/c2ncccn2)c(=O)[nH]c1=O`: the TGI with MDA-N, with NCI-H226 lung, with HOP-62 NSCLC, with MCF7 breast, in the assay with IGROV1 ovarian and in the assay on HCT-116 colon was more than 100 µM throughout. In addition, the TGI with MDA-MB-231 breast and with OVCAR-8 ovarian was more than 100 µM each time.

As for `Nc1cc2ncnc(Nc3cccc(Br)c3)c2cn1`, the TGI in the assay with MDA-N is more than 100 µM; with NCI-H226 lung, 71 µM; with RXF 393 renal it was more than 100 µM; in the assay on HOP-62 NSCLC, more than 100 µM; in the assay with K-562 leukemia it was more than 100 µM; in the assay on HCT-116 colon, more than 100 µM. Besides, the TGI in the assay with MDA-MB-231 breast and in the assay with OVCAR-8 ovarian was more than 100 µM in each case.

With `O=c1oc2ccccc2c(O)c1C(c1ccc(O)cc1)c1c(O)c2ccccc2oc1=O`, the TGI in the assay with MDA-N, in the assay on NCI-H226 lung, in the assay on HCC-2998 colon, with HOP-62 NSCLC, in the assay with IGROV1 ovarian and in the assay with HCT-116 colon was more than 100 µM throughout. The TGI in the assay with MDA-MB-231 breast is 77.7 µM; in the assay on OVCAR-8 ovarian it was more than 100 µM.

The record behind these values is PubChem BioAssay (NCI).
